According to article doi:10.1101/2024.08.25.609621 (bioRxiv, 2024):
≈ marks a conversion by molar mass, not a printed value. Where “and” joins values, the source holds several entries; their conditions need not be identical. Equal values may be shown once. Read-outs that look alike come from different tables or passages of the source.

What was measured:
in vitro = settings: human; for Papp A→B at 1 h / Papp B→A at 1 h: Caco-2
Procedure: (§1) Caco-2 cell plates were obtained commercially and were maintained for 21 days at 37°C with 5% CO2. Cells were washed with Hank’s Balanced Salt Solution (HBSS) with 5 mM HEPES for 30 minutes before starting the experiment. Test compound solutions are prepared by diluting DMSO stock into HBSS buffer, resulting in a final DMSO concentration of 0.1%. Prior to the assay, cell monolayer integrity was verified by […] electrical resistance (TEER) to ensure that wells have resistance above the acceptance cut-off (1 kΩ). Transport experiments were initiated by adding test compounds to the apical (75 μl) or basal (250 μl) side. Transport plates were incubated at 37°C in a humidified incubator with 5% CO2. Samples were taken from the donor and acceptor compartments after one hour and analyzed by liquid chromatography with tandem mass spectrometry (LC/MS/MS) using an AB Sciex API 4000 instrument, coupled to a Shimadzu LC-20AD LC Pump system. Samples were separated using a Waters Atlantis T3 dC18 reverse phase HPLC column (20 mm × 2.1 mm) at a flow rate of 0.5 ml/min. The mobile phase consisted of 0.1% formic acid in acetonitrile (solvent A) and 0.1% formic acid in water (solvent B).
(§2) Apparent permeability (Papp) values were calculated using the following equation: Papp=(dQ/dt)/A/C0 where dQ/dt is the initial rate of compound transport across the cell monolayer, A is the surface area of the filter membrane, and C0 is the initial concentration of the test compound, calculated for each direction using a four-point calibration curve by LC/MS/MS.
(§3) Net flux ratio between the two directional transports was calculated by the following equation: Ratio=PappB-A/PappA-B where PappB-A and PappA-B represent the apparent permeability of compounds from the basal-to-apical and apical-to-basal side of the cellular monolayer, respectively. Recovery was calculated based on the compound concentration at the end of the experiment, compared to that at the beginning of the experiment, adjusted for volumes.

Caco-2 cells = assay: in vitro
Procedure: as §1, §2, §3

Microsomal stability = assay type: in vitro ADME, mouse; settings: for microsomal CLint at 1 µM / half-life at 1 µM: pH 7.4
Procedure: The assay was carried out in 96-well plates at 37°C. Reaction mixtures (25 μl) contained a final concentration of 1 μM compound, 0.5 mg/ml liver microsomes protein, and 1 mM NADPH and/or 1 mM UDPGA (with alamethicin) in 100 mM potassium phosphate (pH 7.4) with 3 mM MgCl2. After 0, 15, 30, and 60 minutes, 150 μl of quench solution (100% acetonitrile with 0.1% formic acid) with internal standard was transferred to each well. Reactions containing the same components except the NADPH were prepared as the negative control. Plates were sealed, vortexed, and centrifuged at 4°C for 15 minutes at 4000 rpm.
The extent of metabolism was calculated as the disappearance of compounds, compared to the 0-min time incubation.

Kinetic solubility = settings: pH 7.4, aqueous buffer, kinetic from dmso stock
[1] = molecular target: T1, human macrodomain MacroD2 (Homo sapiens, UniProt A1Z1Q3); assay: HTRF peptide displacement assay, MacroD2; assay type: binding
T1 sequence (A1Z1Q3 with tags, fused parts or gaps): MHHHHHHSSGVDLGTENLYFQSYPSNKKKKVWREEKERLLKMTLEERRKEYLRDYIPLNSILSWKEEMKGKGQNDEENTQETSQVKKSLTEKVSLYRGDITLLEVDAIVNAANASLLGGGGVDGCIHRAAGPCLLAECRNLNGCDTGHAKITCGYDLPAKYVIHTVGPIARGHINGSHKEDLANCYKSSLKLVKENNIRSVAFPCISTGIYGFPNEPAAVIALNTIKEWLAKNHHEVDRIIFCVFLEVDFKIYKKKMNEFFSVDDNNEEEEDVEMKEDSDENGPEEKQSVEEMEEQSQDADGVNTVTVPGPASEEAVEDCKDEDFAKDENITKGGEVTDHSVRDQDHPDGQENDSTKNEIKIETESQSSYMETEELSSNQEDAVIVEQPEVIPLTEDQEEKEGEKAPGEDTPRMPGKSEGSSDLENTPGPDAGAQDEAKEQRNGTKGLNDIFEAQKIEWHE

human macrodomain Targ1 = molecular target: T2, human macrodomain Targ1 (Homo sapiens, UniProt Q9Y530); assay: HTRF peptide displacement assay, Targ1; assay type: binding
T2 sequence (Q9Y530 with tags, fused parts or gaps): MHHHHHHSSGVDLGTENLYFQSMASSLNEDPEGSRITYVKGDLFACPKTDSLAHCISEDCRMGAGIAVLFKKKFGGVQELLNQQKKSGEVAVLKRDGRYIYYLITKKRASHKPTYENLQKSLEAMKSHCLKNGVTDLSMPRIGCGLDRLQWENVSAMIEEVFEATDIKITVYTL

[2] = molecular target: SARS-CoV-2 NSP3 macrodomain (Mac1) (Severe acute respiratory syndrome coronavirus 2, UniProt P0DTD1); assay: biochemical; assay type: binding; settings: for SARS CoV-2 macrodomain HTRF assay: Hillslope: dose-response fit
[3] = molecular target: SARS-CoV-2 NSP3 macrodomain (Mac1), P43 crystal form (Severe acute respiratory syndrome coronavirus 2, UniProt P0DTD1); assay type: binding; settings: for 1-BDC: PanDDA background density correction; for Total number of conformations: ligand conformations modeled in Mac1 crystal structure; for X-ray crystallography: Binding site: site where the ligand is bound in the X-ray crystal structure; for X-ray crystal structure: X-ray crystal structure determined (TRUE); for Binding site: site of ligand in X-ray crystal structure
[4] = Caco-2, Caco-2 ratio B-A/A-B, net flux ratio
[5] = Caco-2, compound concentration 5
[6] = mouse, microsomes, 1 μM compound, 0.5 mg/ml microsomal protein, read-out: Mouse microsome T1/2
[7] = mouse microsomes, read-out: CLint (mouse)
[8] = occupancy estimate from PanDDA BDC
[9] = preliminary screen, compound at 200 μM, mean of 3-4 technical replicates, read-out: % competition in HTRF assay
[10] = crystal soak 10 mM, P43 crystals
[11] = crystal soak 10 mM, DMSO background map
[12] = occupancy estimate from PanDDA 1-BDC
[13] = crystal soak concentration 10 mM, P43 crystals
[14] = crystal soak concentration 10 mM, DMSO background map

## O=C1CCCN1Nc1ncnc2[nH]c3cc(F)ccc3c12 [AVI-219, reference compound]
In vitro
  Papp A→B at 1 h: 106 nm/s
  Papp B→A at 1 h: 168 nm/s
In vitro; [4]
  efflux ratio at 1 h: 1.6
Caco-2 cells; [5]
  Recover Rate (%): 98%
Microsomal stability; liver microsomes, mouse microsome stability, read-out: CLint (mouse) (µl/min/mg protein), mean
  microsomal CLint at 1 µM: 53.1 µL/min/mg
Microsomal stability; liver microsomes, mouse microsome stability, read-out: T1/2 (min), mean
  half-life at 1 µM: 26.1 min
Microsomal stability; mouse, microsomes
  microsomal CLint at 1 µM: 53.1 µL/min/mg
Kinetic solubility; phosphate buffered saline
  solubility kinetic at […]: 127 µM (≈ 36.2 µg/mL)

## O=C(Nc1ccc(C(=O)N[C@H]2c3cccc(O)c3C[C@H]2C(=O)O)cc1)NC1CC1 [AVI-92, reference compound]
In vitro
  Papp A→B at 1 h: 0.4 nm/s
  Papp B→A at 1 h: 17 nm/s
In vitro; [4]
  efflux ratio at 1 h: 40.7
In vitro; Caco-2, Ratio (B-A/A-B), Caco-2, compound concentration 5
  efflux ratio at 1 h: 42.5
Caco-2 cells; [5]
  Recover Rate (%): 91%
Microsomal stability; mouse microsome stability
  CLint (mouse) (µl/min/mg protein), mean: <11.6 µl/min/mg protein
  T1/2 (min), mean: >120 min
Microsomal stability; [6]
  half-life at 1 µM: > 120 min
Microsomal stability; [7]
  microsomal CLint at 1 µM: < 11.6 µL/min/mg
Kinetic solubility
  solubility kinetic at […]: 524 µM (≈ 207 µg/mL)

## CC(C)[C@H](CO)Nc1ncnc2[nH]ccc12 [AVI-1504, (2R)-3-Methyl-2-({7H-pyrrolo[2,3-d]pyrimidin-4-yl}amino)butan-1-ol]
Microsomal stability; mouse microsome stability
  CLint (mouse) (µl/min/mg protein), mean: <11.6 µl/min/mg protein

## Cc1c[nH]c2ncnc(NCC3(O)CCCCC3)c12 [AVI-3761, 1-(((5-methyl-7H-pyrrolo[2,3-d]pyrimidin-4-yl)amino)methyl)cyclohexan-1-ol]
[1]
  IC50: > 1000 µM
  binding to the human macrodomain MacroD2: none
Human macrodomain Targ1
  IC50: > 1000 µM
  binding to the human macrodomain Targ1: none
In vitro
  Papp A→B at 1 h: 215 nm/s
  Papp B→A at 1 h: 112 nm/s
Caco-2 cells; human, Caco-2, 1 h
  Recover Rate (%): 86%
Microsomal stability; mouse microsome stability
  T1/2 (min), mean: 7.49 min
Microsomal stability; [6]
  half-life at 1 µM: 7.49 min
Microsomal stability; [7]
  microsomal CLint at 1 µM: 185 µL/min/mg

## Nc1ncnc2c1ncn2[C@@H]1O[C@H](COP(=O)(O)OP(=O)(O)OC[C@H]2O[C@@H](O)[C@H](O)[C@@H]2O)[C@@H](O)[C@H]1O.[Na].[Na] [ADP-ribose, reference compound]
Human macrodomain Targ1; HTRF dose-response fit, Targ1
  Hill slope: 1.5

## OCC1CC=CCN1c1ncnc2[nH]ccc12 (stereo not drawn) [AVI-6002]
[2]; HTRF dose-response fit, Mac1
  Hill slope: 1.3
[2]
  SARS CoV-2 macrodomain HTRF assay: Hillslope: 1.3
[3]
  Occupancy difference (refined_occupancy - 2*(1-BDC)): 18
  Refined ligand occupancy (%): 50%
  1-BDC: 0.16
  Total number of conformations: 1
  X-ray crystallography: Binding site: Adenosine
[3]; DMSO background map, event 1
  PanDDA run, DMSO background map: 1-BDC: 0.21 and 0.16
[3]; [8]
  2*(1-BDC) (%): 32%

## O=C(O)C(F)(F)F.OCC1(Nc2ncnc3[nH]ccc23)CCC1 [AVI-3670]
[2]; HTRF dose-response fit, Mac1
  Hill slope: 1.2
[2]; SARS CoV-2 macrodomain HTRF assay, dose-response
  Hill slope: 1.2
[2]; Single dose, concentration 200 μM, read-out: Average % competition
  inhibition at 200 µM: 87%
[2]; [9]
  inhibition at 200 µM: 87%
[3]
  1-BDC: 0.18
  X-ray crystal structure: TRUE
  Total number of conformations: 2
  Binding site: Adenosine
[3]; [10]
  Pandda run, overall: Hit: TRUE
  Pandda run, overall: Modeled: TRUE
[3]; [11]
  PanDDA run, DMSO background map: 1-BDC: 0.18
  PanDDA run, DMSO background map: Hit: TRUE
[3]; [12]
  2*(1-BDC) (%): 36%

## Cc1c[nH]c2ncnc(NCC3(O)CCOCC3)c12 [AVI-4194, 4-(((5-methyl-7H-pyrrolo[2,3-d]pyrimidin-4-yl)amino)methyl)tetrahydro-2H-pyran-4-ol]
[2]; HTRF dose-response fit, Mac1
  Hill slope: 1.3
[2]
  SARS CoV-2 macrodomain HTRF assay: Hillslope: 1.3
[3]
  Occupancy difference (refined_occupancy - 2*(1-BDC)): 0
  Refined ligand occupancy (%): 18%
  1-BDC: 0.09
  Total number of conformations: 1
  X-ray crystallography: Binding site: Adenosine
[3]; crystal soak concentration 10 mM, DMSO background map, event 1
  PanDDA run, DMSO background map: 1-BDC: 0.13 and 0.09
[3]; [13]
  Pandda run, overall: Hit: TRUE
  Pandda run, overall: Modeled: TRUE
  Pandda run, overall: Modeling comment: Duplicate, not modeled
[3]; [14]
  PanDDA run, DMSO background map: Hit: TRUE
  PanDDA run, DMSO background map: Modeled: TRUE
[3]; [8]
  2*(1-BDC) (%): 18%

## OCC(CN1CCCCC1)Nc1ncnc2[nH]ccc12 (stereo not drawn) [AVI-3677]
[2]; preliminary screen, compound at 200 μM, mean of 3-4 technical replicates
  % competition in HTRF assay: neither had detectable binding
[3]
  1-BDC: 0.21
  X-ray crystal structure: TRUE
  Total number of conformations: 1
  Binding site: Adenosine
[3]; [10]
  Pandda run, overall: Hit: TRUE
  Pandda run, overall: Modeled: TRUE
[3]; [11]
  PanDDA run, DMSO background map: 1-BDC: 0.21
  PanDDA run, DMSO background map: Hit: TRUE
[3]; [12]
  2*(1-BDC) (%): 42%

## CCC(O)[C@H]1CCCN1c1ncnc2[nH]ccc12 (stereo partly drawn) [AVI-3666]
[2]; HTRF dose-response fit, Mac1
  Hill slope: 1.3
[2]; Single dose, concentration 200 μM, read-out: SARS CoV-2 macrodomain HTRF assay: Average % competition
  inhibition at 200 µM: 87%
[2]; confirmatory dose-response, best fit value of 3-4 technical replicates, Fig. S3 prints the 95% confidence interval in brackets, read-out: HTRF IC50
  IC50: 46 µM
[2]
  SARS CoV-2 macrodomain HTRF assay: Hillslope: 1.3
[2]; dose-response, read-out: SARS CoV-2 macrodomain HTRF assay: Ki
  Ki: 43 µM
[2]; [9]
  inhibition at 200 µM: 87%
[3]
  1-BDC: 0.3
  Total number of conformations: 1
  X-ray crystallography: Binding site: Adenosine
[3]; [10]
  Pandda run, overall: Hit: TRUE
  Pandda run, overall: Modeled: TRUE
[3]; [11]
  PanDDA run, DMSO background map: 1-BDC: 0.3
  PanDDA run, DMSO background map: Hit: TRUE
[3]; [12]
  2*(1-BDC) (%): 60%
